Measurements published in ChEMBL document CHEMBL1201862, “PubChem BioAssay data set” (2004).
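Step 1: Grow cells in 96-well plates. Step 2: Expose to compound for 48 hours at 5 concentrations. Step 3: Interpolate endpoints linearly; if unreached, use highest concentration. GI50 marks 50% less growth.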 The source made the active and inactive calls. No stated cut-off is given here; in the data, active = GI50 up to about 1.1 µM and inactive = higher.

How the values were obtained:
Assay in all cases: NCI anticancer screen, dose series, 48 h
RPMI-8226 = test system: RPMI-8226
PC-3 = test system: PC-3
SR = test system: SR
M14 = test system: M14
SK-OV-3 = test system: SK-OV-3
OVCAR-3 = test system: OVCAR-3
HT-29 = test system: HT-29
UACC-257 = test system: UACC-257
KM12 = test system: KM12
SW-620 = test system: SW-620
U-251 = test system: U-251
SN12C = test system: SN12C
MDA-MB-231 = test system: MDA-MB-231
A549 = test system: A549
SF-268 = test system: SF-268
SK-MEL-28 = test system: SK-MEL-28
HOP-62 = test system: HOP-62
IGROV-1 = test system: IGROV-1
NCI-H23 = test system: NCI-H23
RXF 393 = test system: RXF 393

Measured: GI50

COc1ccc2c(c1)CCc1c-2n(CCN(C)C)c2ccc(OC)cc12
inactive: RPMI-8226 4.92 µM | PC-3 12.1 µM | SR 3.95 µM | M14 3.6 µM | SK-OV-3 25.9 µM | OVCAR-3 31 µM | HT-29 3.44 µM | UACC-257 33 µM | KM12 7.53 µM | SW-620 5.37 µM | U-251 12.1 µM | SN12C 12.5 µM | MDA-MB-231 11.2 µM | A549 15 µM | SF-268 22.6 µM | SK-MEL-28 9.48 µM | HOP-62 16.1 µM | IGROV-1 18.7 µM | NCI-H23 16.3 µM

O=C(CN(C(=O)OC12CC3CC(CC(C3)C1)C2)C(=O)OC12CC3CC(CC(C3)C1)C2)Oc1ccc([N+](=O)[O-])cc1
inactive: PC-3 16.1 µM | RXF 393 42 µM | SR > 100 µM | M14 > 100 µM | SK-OV-3 > 100 µM | OVCAR-3 > 100 µM | HT-29 > 100 µM | UACC-257 > 100 µM | KM12 > 100 µM | SW-620 56.6 µM | U-251 69.3 µM | SN12C 86.3 µM | MDA-MB-231 76.2 µM | A549 > 100 µM | SF-268 > 100 µM | SK-MEL-28 > 100 µM | HOP-62 > 100 µM | IGROV-1 > 100 µM | NCI-H23 93.8 µM

O=c1o[nH]/c(=N/c2ccccc2)n1-c1ccccc1
inactive: PC-3 > 100 µM | RXF 393 > 100 µM | SR > 100 µM | M14 > 100 µM | SK-OV-3 > 100 µM | OVCAR-3 > 100 µM | HT-29 > 100 µM | UACC-257 > 100 µM | KM12 > 100 µM | SW-620 > 100 µM | U-251 > 100 µM | SN12C > 100 µM | MDA-MB-231 > 100 µM | A549 > 100 µM | SK-MEL-28 > 100 µM | HOP-62 > 100 µM | IGROV-1 > 100 µM | NCI-H23 > 100 µM

Cc1ccc(C(=O)N(C(C)C)C(C)C)cc1/N=N/N(C)C
inactive: RPMI-8226 33 µM | PC-3 > 100 µM | SR 41.4 µM | M14 > 100 µM | SK-OV-3 > 100 µM | OVCAR-3 31.3 µM | HT-29 74.1 µM | UACC-257 57.4 µM | KM12 45.2 µM | SW-620 > 92.3 µM | U-251 > 80 µM | SN12C > 100 µM | MDA-MB-231 > 100 µM | A549 > 100 µM | SF-268 > 51.6 µM | SK-MEL-28 41.1 µM | HOP-62 > 100 µM | IGROV-1 > 100 µM | NCI-H23 41 µM

C/C(=N/NC(=S)N(C)C)c1ccccc1O
inactive: RPMI-8226 > 31.8 µM | PC-3 10.1 µM | RXF 393 23 µM | M14 7.35 µM | SK-OV-3 > 44.5 µM | OVCAR-3 2.97 µM | HT-29 3.26 µM | UACC-257 17.1 µM | KM12 8.85 µM | SW-620 9.4 µM | U-251 6.35 µM | SN12C 14.4 µM | MDA-MB-231 35.8 µM | A549 7.87 µM | SF-268 6.07 µM | SK-MEL-28 26.4 µM | HOP-62 5.81 µM | IGROV-1 5.98 µM | NCI-H23 20.7 µM

O=C1/C(=N/c2ccc(Nc3ccccc3)cc2)Oc2ccccc21
inactive: PC-3 2.81 µM | RXF 393 2.51 µM | SR 2.15 µM | M14 2.33 µM | SK-OV-3 5.98 µM | OVCAR-3 1.97 µM | HT-29 2.2 µM | UACC-257 2.42 µM | KM12 2.14 µM | SW-620 2.36 µM | U-251 1.69 µM | SN12C 2.02 µM | MDA-MB-231 2.27 µM | A549 3.51 µM | SF-268 2.88 µM | SK-MEL-28 4.19 µM | HOP-62 5.57 µM | IGROV-1 3.06 µM | NCI-H23 2.04 µM

COc1ccc(Nc2[nH]c(C(C)=O)c(N)c2C(=S)Nc2ccccc2)cc1
inactive: RXF 393 16.6 µM | SR 33.7 µM | M14 26.8 µM | SK-OV-3 > 100 µM | OVCAR-3 > 100 µM | HT-29 35.3 µM | UACC-257 52.2 µM | KM12 37.5 µM | SW-620 > 100 µM | U-251 43.8 µM | SN12C 86.7 µM | MDA-MB-231 52 µM | A549 41.9 µM | SF-268 29.6 µM | SK-MEL-28 36.2 µM | HOP-62 > 100 µM | IGROV-1 78.2 µM | NCI-H23 65 µM
